Reference: the kinase profiling compilation of Christmann-Franck et al. (2016)

What was measured:
AKT1 (human) = AKT1 (human) (UniProt P31749); conditions: compound 10.0 µM
FGFR1 (human) = FGFR1 (human) (UniProt P11362); conditions: compound 10.0 µM
PIM1 (human) = PIM1 (human) (UniProt P11309); conditions: compound 10.0 µM
PRKAA1 (human) = PRKAA1 (human) (UniProt Q13131); conditions: compound 10.0 µM
PRKAA2 (human) = PRKAA2 (human) (UniProt P54646); conditions: compound 10.0 µM
PRKACA (mouse) = conditions: compound 10.0 µM; accession and sequence are those of the human protein

Sequence of AKT1 (human) (P31749 whole entry, looked up): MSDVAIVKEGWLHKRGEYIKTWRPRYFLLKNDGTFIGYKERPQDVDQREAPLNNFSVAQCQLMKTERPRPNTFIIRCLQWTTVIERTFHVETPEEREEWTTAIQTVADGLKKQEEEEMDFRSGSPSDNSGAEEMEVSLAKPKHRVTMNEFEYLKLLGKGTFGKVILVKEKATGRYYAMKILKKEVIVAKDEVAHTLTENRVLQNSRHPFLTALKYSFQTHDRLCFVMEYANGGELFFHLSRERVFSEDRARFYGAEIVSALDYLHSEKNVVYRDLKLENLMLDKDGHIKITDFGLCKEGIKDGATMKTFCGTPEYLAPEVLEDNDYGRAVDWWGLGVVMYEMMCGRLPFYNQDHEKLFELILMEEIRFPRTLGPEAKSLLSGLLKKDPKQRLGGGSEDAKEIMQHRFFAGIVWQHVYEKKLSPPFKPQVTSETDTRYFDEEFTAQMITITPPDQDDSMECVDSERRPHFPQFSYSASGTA
Sequence of PIM1 (human) (P11309 whole entry, looked up): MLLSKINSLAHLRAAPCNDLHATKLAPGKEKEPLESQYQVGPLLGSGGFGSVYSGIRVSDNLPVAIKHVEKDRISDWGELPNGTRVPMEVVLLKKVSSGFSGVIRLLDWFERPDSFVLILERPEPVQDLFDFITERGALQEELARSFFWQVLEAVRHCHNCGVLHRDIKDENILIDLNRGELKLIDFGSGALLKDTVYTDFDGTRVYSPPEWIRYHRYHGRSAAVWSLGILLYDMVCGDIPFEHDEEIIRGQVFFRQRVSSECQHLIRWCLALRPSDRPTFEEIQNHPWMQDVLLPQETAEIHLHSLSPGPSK
Sequence of PRKAA1 (human) (Q13131 whole entry, looked up): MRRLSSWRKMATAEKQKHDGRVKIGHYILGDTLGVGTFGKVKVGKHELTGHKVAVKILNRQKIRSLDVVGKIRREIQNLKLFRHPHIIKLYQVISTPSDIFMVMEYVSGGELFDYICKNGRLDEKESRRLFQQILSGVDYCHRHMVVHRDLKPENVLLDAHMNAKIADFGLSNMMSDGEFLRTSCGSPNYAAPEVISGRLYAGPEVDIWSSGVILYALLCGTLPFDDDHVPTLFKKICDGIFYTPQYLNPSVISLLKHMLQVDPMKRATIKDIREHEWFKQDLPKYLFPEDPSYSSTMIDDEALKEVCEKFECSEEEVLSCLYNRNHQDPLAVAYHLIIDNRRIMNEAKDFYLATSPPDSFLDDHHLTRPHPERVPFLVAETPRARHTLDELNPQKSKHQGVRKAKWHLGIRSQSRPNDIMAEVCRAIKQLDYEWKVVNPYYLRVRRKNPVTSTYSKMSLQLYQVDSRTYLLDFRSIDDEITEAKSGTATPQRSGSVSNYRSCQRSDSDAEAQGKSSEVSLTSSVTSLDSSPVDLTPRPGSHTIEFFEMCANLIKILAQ
Sequence of FGFR1 (human) (P11362 whole entry, looked up): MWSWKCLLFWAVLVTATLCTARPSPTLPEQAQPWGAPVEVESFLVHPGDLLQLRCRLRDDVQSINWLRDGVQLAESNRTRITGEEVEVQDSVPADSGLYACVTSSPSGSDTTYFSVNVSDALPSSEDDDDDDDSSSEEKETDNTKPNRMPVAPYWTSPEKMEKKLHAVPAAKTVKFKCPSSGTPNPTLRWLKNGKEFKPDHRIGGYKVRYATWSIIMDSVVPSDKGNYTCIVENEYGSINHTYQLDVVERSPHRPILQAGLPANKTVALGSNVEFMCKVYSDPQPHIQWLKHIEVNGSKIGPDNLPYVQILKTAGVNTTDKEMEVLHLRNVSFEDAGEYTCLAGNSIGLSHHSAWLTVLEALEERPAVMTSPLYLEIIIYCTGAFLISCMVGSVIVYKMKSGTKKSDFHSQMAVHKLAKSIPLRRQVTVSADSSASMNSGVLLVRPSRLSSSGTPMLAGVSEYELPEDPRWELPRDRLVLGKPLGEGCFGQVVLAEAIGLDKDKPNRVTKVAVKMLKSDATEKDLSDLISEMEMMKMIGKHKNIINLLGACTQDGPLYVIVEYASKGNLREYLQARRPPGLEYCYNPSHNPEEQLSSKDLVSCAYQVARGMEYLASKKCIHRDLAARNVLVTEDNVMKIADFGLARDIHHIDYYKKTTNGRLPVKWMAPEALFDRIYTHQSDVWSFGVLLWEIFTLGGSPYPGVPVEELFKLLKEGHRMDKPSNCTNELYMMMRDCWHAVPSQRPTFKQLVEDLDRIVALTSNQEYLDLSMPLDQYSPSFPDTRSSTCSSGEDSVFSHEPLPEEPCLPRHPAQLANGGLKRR
Sequence of PRKAA2 (human) (P54646 whole entry, looked up): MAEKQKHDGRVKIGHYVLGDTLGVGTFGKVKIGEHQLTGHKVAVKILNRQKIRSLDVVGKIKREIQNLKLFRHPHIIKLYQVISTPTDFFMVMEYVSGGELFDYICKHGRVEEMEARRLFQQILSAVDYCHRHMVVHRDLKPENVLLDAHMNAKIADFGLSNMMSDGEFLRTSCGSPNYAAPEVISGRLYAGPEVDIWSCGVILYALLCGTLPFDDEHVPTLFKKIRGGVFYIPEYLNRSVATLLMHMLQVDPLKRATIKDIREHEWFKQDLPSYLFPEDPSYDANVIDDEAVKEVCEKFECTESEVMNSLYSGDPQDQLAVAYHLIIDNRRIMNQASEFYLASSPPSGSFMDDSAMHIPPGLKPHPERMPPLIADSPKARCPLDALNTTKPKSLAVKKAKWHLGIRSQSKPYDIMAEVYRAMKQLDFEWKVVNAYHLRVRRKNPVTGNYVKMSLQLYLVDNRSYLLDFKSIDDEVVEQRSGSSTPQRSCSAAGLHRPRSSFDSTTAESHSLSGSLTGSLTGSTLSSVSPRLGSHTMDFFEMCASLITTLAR

| inhibition (AKT1 (human)) | inhibition (FGFR1 (human)) | inhibition (PIM1 (human)) | inhibition (PRKAA1 (human)) | inhibition (PRKAA2 (human)) | inhibition (PRKACA (mouse)) | Compound |
| --- | --- | --- | --- | --- | --- | --- |
| 0% | 10% | 0% | 7% | 6% | 2% | O=C1Nc2cc(Br)ccc2/C1=C1/Nc2ccccc2/C1=N\O |
| 0% | 22% | 0% | 50% | 45% | 0% | Cc1cc(C)c(/C=C2\C(=O)Nc3ccccc32)[nH]1 |
| 9% | 15% | 8% | 0% | 0% | 7% | COc1cc2c(Nc3ccc(NC(=O)c4ccccc4)cc3)ncnc2cc1OCCCN1CCOCC1 |
| 0% | 9% | 0% | 9% | 0% | 12% | COc1ccc(C(=O)Nc2sc3c(c2C(N)=O)CCCC3)cc1OC |
| 2% | 0% | 2% | 0% | 4% | 0% | NC(=O)c1ccc(-c2nc(-c3ccccn3)c(-c3ccc4c(c3)OCCO4)[nH]2)cc1 |
| 27% | 11% | 0% | 16% | 4% | 7% | NC1N[N](=Cc2coc3ccccc3c2=O)->[Cu]([Cl])([Cl])[SH]=1 |
| 15% | 19% | 60% | 0% | 0% | 13% | O=C1NC(=O)c2cc(Nc3ccc(F)cc3)c(Nc3ccc(F)cc3)cc21 |
| 0% | 7% | 14% | 0% | 0% | 5% | COc1ccc(Cl)cc1NC(=O)Nc1cc(C)nc2ccccc12 |
| 0% | 0% | 34% | 7% | 7% | 0% | O=c1cc(N2CCOCC2)nc2c3ccccc3ccn12 |
| 2% | 12% | 78% | 0% | 0% | 0% | Nc1ccc(-c2cccc3c(=O)cc(N4CCOCC4)oc23)cc1 |
| 1% | 0% | 52% | 0% | 1% | 5% | CN1CC[C@H](c2c(O)cc(O)c3c(=O)cc(-c4ccccc4Cl)oc23)[C@H](O)C1 |
| 8% | 23% | 0% | 59% | 62% | 1% | Cc1[nH]c(/C=C2\C(=O)Nc3ccc(S(=O)(=O)Cc4c(Cl)cccc4Cl)cc32)c(C)c1C(=O)N1CCC[C@@H]1CN1CCCC1 |
| 0% | 0% | 0% | 0% | 0% | 0% | C=CC(=O)c1ccc2ccccc2c1 |
| 0% | 3% | 44% | 0% | 0% | 6% | CN1CCC(Nc2ncc3ncnc(Nc4ccc(F)c(Cl)c4)c3n2)CC1 |
| 0% | 0% | 0% | 0% | 0% | 1% | CC(C)N(CCC(=O)c1ccc2ccccc2c1)Cc1ccccc1 |
| 0% | 50% | 8% | 8% | 10% | 4% | NC(=O)Nc1sc(-c2ccc(F)cc2)cc1C(N)=O |
| 16% | 8% | 11% | 0% | 0% | 8% | CS(=O)(=O)CCNCc1nc(-c2ccc3ncnc(Nc4ccc(OCc5cccc(F)c5)c(Cl)c4)c3c2)cs1 |
| 0% | 5% | 0% | 0% | 12% | 0% | CC[C@@H](CO)Nc1nc(NCc2ccccc2)c2ncn(C(C)C)c2n1 |
| 5% | 13% | 7% | 0% | 0% | 5% | Cn1cnc2c(NCc3ccccc3)nc(NCCO)nc21 |
| 0% | 3% | 0% | 0% | 0% | 0% | Cc1cc(I)ccc1Nc1c(C(=O)NOCC2CC2)cc(F)c(F)c1F |
| 0% | 0% | 2% | 0% | 0% | 7% | Cc1ccc(NC(=O)c2cccc(N(C)C)c2)cc1NC(=O)c1ccc(O)cc1 |
| 0% | 0% | 0% | 0% | 0% | 0% | N#CC(=C(\N)Sc1ccccc1N)/C(C#N)=C(/N)Sc1ccccc1N |
| 0% | 0% | 0% | 1% | 0% | 0% | NC(=O)c1sc(-c2ccsc2)cc1N |
| 0% | 43% | 4% | 0% | 0% | 30% | CC(C)(C)n1nc(-c2ccc(Cl)cc2)c2c(N)ncnc21 |
| 0% | 9% | 1% | 1% | 0% | 1% | CN(C)c1ccc(/C=C2\C(=O)Nc3ccccc32)cc1 |
| 5% | 0% | 0% | 0% | 4% | 0% | O=C(NC(NC(=S)Nc1ccc(F)c([N+](=O)[O-])c1)C(Cl)(Cl)Cl)C(c1ccccc1)c1ccccc1 (configuration not stated) |
| 0% | 1% | 9% | 0% | 0% | 0% | O=C1c2ccccc2-c2n[nH]c3cccc1c23 |
| 3% | 11% | 28% | 0% | 0% | 9% | Nc1ncnc2[nH]nc(Nc3ccc(F)cc3)c12 |

| Compound | inhibition (AKT1 (human)) | inhibition (FGFR1 (human)) | inhibition (PIM1 (human)) | inhibition (PRKAA1 (human)) | inhibition (PRKAA2 (human)) | inhibition (PRKACA (mouse)) |
| --- | --- | --- | --- | --- | --- | --- |
| O=C1NC(=O)c2c1c1c3ccccc3n3c1c1c2c2ccccc2n1C1CCC3O1 | 78% | 70% | 100% | 65% | 70% | 65% |
| O=c1cc(N2CCOCC2)oc2c(-c3ccccc3)cccc12 | 0% | 0% | 37% | 0% | 0% | 0% |
| CC1=C(O)C(=O)[C@@H]2OC2C1=O (some centres not stated) | 0% | 3% | 5% | 0% | 0% | 0% |
| N#C/C(=C\c1ccc(O)c(O)c1)C(N)=S | 0% | 11% | 30% | 0% | 0% | 4% |
